The results in this text go back to patent publication US12685775B2, “Oligonucleotides with nucleoside analogs” (Sirnaomics, Inc., priority 2019, dated 2026).

The term IC50 denotes the concentration needed to halve the response being measured. By inhibition is commonly meant the share of the control response that was lost under treatment. What is called viability is a per cent measure of how many cells are alive, often set against a control. Read a low viability as more harm to the cells.

Type in all cases: cell-based
Data set [1] deals with BxPC3 cells. The data set is described as follows: BxPC3 cell viability 96 h after transfection/treatment, Cell Titer Glo (Examples 2 and 3). The note with it: for inhibition in cell viability at 0.1 nM: BxPC3, 0.1 nM, GEM-modified siRNAs; for IC50: read-out: IC50, inhibition of cell viability. The procedure:
(§1) Pancreatic cancer BxPC3 cells were seeded at 1000 cells/ml and grown as monolayers in 384 well plates. The cells were transfected with the siRNAs indicated against CHK1 or Rad17 using Lipofectamine (ThermoFisher) or were treated with gemcitabine at the concentrations indicated on the X axis. After a 96 h incubation at 37° C. with 5% CO2, cell viability was determined using Cell Titer Glo (Perkin Elmer) by monitoring the luminescence signal produced by the reagent in a Perkin Elmer Envision plate reader equipped with Ultrasensitive luminescence detection optics. From the figure we can see that gemcitabine (GEM) produces a dose-dependent inhibition of cell viability with an IC50 of ~6 nM and maximal efficacy of >80% cell killing. A 25mer blunt ended siRNA against RAD17 produced a dose dependent inhibition in cell viability with a maximum efficacy at only 60% reduction in cell viability and an IC50 of ~5 nM. […] The IC50 for the latter siRNA was similar to that for the Azorsa sequence (~0.3 nM).
SiRNAs were synthesized with gemcitabine nucleotide amidites added at the 3′ end of each of the Sense strands for the siRNA sequences indicated. SiRNAs were transfected into the cells and incubated as detailed in FIG. 1. Maximal efficacy of all sequences was now improved to >95% inhibition of cell viability at concentrations above 10 nM. […] The gemcitabine nucleotides was examined to see if it could replace the Cytidine nucleotides within the siRNA sequence. […] FIGS. 12a-12d show the effect of adding 2 gemcitabine nucleotides at the 3′ end of the Sense strand of each siRNA on potency and efficacy.
In general terms: In ATP-based viability assays light output follows the ATP content of the culture.

The test system of data set [2] is BxPC3 pancreatic cancer cell. Description: cells. The conditions noted are these: for IC50: BxPC3, 120 h exposure, read-out: IC50, cell viability. Here is the method: The siRNA sequences shown in Table 2 were tested for efficacy and potency against BxPC3 pancreatic cancer cell viability after 120 h exposure.
The next data set deals with MiaPaca-2. Description: MiaPaca-2 cell viability, 96 h exposure (Examples 8 and 9). The conditions noted are these: for maximal inhibition of cell viability: 96 h. The procedure: as §1
Using gemcitabine or the same unmodified siRNAs and exposure time (96 h) as used against BxPC3 cells (FIG. 1), we studied the effect on another pancreatic cancer cell line—MiaPaca-2.

The subject of data set [3] is BxPC3 cells. The data set is described as follows: BxPC3 cell viability after 72 hrs treatment, CTG2 reagent (Example 1). The conditions noted are these: Homo sapiens, BXPC-3, BxPC3, 72 h. Here is the method:
BxPC3 cells were seeded in two 384-well plates at 500 cells/well. On the next day cells were treated with various concentrations of CID2A, CID2S, CID4 siRNAs (formulated with Lipofectamine RNAiMAX) or gemcitabine (0.1-1000 nM) for 72 hrs. After incubation at 37° C. for 72 hrs, the number of viable cells was assessed using CTG2 reagent. Non-treated cells were set as 100%.

The subject of data set [4] is BxPC3 cells. The data set is described as follows: BxPC3 cell viability after 120 h exposure, Cell Titer Glo (Example 4, polyGEM constructs). Here is the method:
BxPC3 cells seeded in 384 well plates at 1000 cells/well were transfected with siRNA constructs or exposed to gemcitabine at the concentrations indicated in the figure. The samples tested were gemcitabine alone (GEM), the unmodified 19mer siRNA against CHK1 (CHK-AZ) and the same sequences of the siRNA but with either 2 (poly-2), 4 (poly-4) or 6 (poly-6) gemcitabine nucleotides added at the 3′ end of the Sense strand prior to annealing with the same antisense strand. After 120 h exposure to the various agents, the cell viability was determined by addition of Cell Titer Glo (PE), plates were shaken for 10-20 mins and then luminescence signal correlating with cell viability was determined in a PE Envision plate reader.
It was reasoned that, since such an improvement in efficacy against pancreatic cancer cell viability was obtained when adding 2 GEM nucleotides onto the SS of an siRNA, then adding additional GEMs would further improve the efficacy and/or potency of the siRNAs. To this end the unmodified 19mer siRNA (CHK-AZ) was compared with the same sequence where 2Gems were added at the 3′ end of the SS (poly-2), 4GEMs were added (poly-4) or 6 GEMs were added (poly-6). These sequences were compared with gemcitabine alone (GEM). The experiment was performed by transfection of the siRNAs in BxPC3 cells as for FIG. 1 but the exposure time prior to measurement of cell viability was 120 h. […]

Data set [5] deals with BxPC3 cells. The data set is described as follows: Screen of siRNA sequences designed against CHK1: % viable cells 72 h after transfection, BxPC3. Here is the method: (§2) The percentage of viable cells 72 h after transfection of the siRNA sequences into cells in culture is shown (top panel—BxPC3 cells; lower panel—CFPAC cells). 100% viability is defined as that in the presence of a NON-silencing control siRNA (NS). CHK1_AZ (AZ) was tested as a comparator. CD=Cell Death siRNAs—known to produce maximal killing of many cell types when transfected into cells.

The next data set has as its system CFPAC cells. Description: Screen of siRNA sequences designed against CHK1: % viable cells 72 h after transfection, CFPAC. The procedure: as §2
A further data set has as its system CHK1. Description: siRNA validation of target silencing (qRTPCR). The note with it: previous studies. The procedure: These experiments were performed using the siRNAs shown below. The degree of gene target silencing was measured in cells transfected with the siRNAs at (50 nM) and the degree of gene silencing was measured using qRTPCR (using Beta-actin as a control housekeeping gene for normalization of the data).

“Also recorded” adds a separate entry of the source. Read-outs that look alike come from different tables or passages of the source.

On to “SLP49-4: RAD17 25mer siRNA with 2 additional GEMs attached at the 3′ end of the SS (SEQ ID NO: 24) (sense CCAACAAUUAUGAUGAAAUUUCUUACC; antisense UAAGAAAUUUCAUCAUAAUUGUUGG; 25mer siRNA, two gemcitabine nucleotides added at sense strand 3' end, further chemistry not given here)”, for which the “inhibition in cell viability at 0.1 nM” value with BxPC3 cells [1] was “no effect on cell viability”. Further, in data set [2], the “efficacy (inhibition of cell viability / cell killing) at 30 nM” value worked out at 100% and the IC50 was roughly 4 nM. Also, the “inhibition at 30 nM” value with MiaPaca-2 (30 nM) worked out at 93%.
For the compound “SLP49-1: Unmodified 25mer blunt ended CHK1 siRNA, sense CCUGUGGAAUAGUACUUACUGCAAU (SEQ ID NO: 18) (antisense AUUGCAGUAAGUACUAUUCCACAGG; unmodified RNA)”, in the data set on BxPC3 cells [1] (BxPC3, 96 h, 100 nM), the “inhibition of cell viability at 100 nM” value was ~ 90%. In addition, the IC50 is roughly 0.3 nM with BxPC3 cells [1] (BxPC3, 96 h) and 0.25 nM in data set [2]. Besides, the “Efficacy at 100 nM” value in data set [2] (BxPC3, 120 h, 100 nM) was 90%. Besides, the figures for the “maximal inhibition of cell viability” value in the data set on MiaPaca-2 (listed as 25mer blunt ended siRNA designed against CHK1) and with MiaPaca-2 (listed as Chk1_de) were ~ 80% and 80%, respectively.
Turning to “SLP49-5: CHK1 siRNA, SS shortened by first 2 bases, 3 GEMs in place of Cs (SEQ ID NO: 20) (sense UGUGGAAUAGUACUUACUGCAAU; antisense AUUGCAGUAAGUACUAUUCCACAGG; three gemcitabines replace cytidines in sense strand, positions not given here)”, in data set [2], the “efficacy (inhibition of cell viability / cell killing) at 30 nM” value is given as 83-97% and the IC50 was roughly 3 nM.
In the data set with BxPC3 cells [3] (50 nM), `Nc1ccn([C@@H]2O[C@H](CO)[C@@H](O)C2(F)F)c(=O)n1` [gemcitabine, 2′,2′-difluoro 2′-deoxycytidine, reference compound] came in with a viability at 0.05 µM of 26%. Also, the IC50 in the data set with BxPC3 cells [3] (no Lipofectamine, read-out: IC50, reduction in cell viability) is roughly 7 nM; with BxPC3 cells [1] (Homo sapiens, BXPC-3, BxPC3, 96 h), roughly 6 nM; in the data set with BxPC3 cells [4] (Homo sapiens, BXPC-3, BxPC3, 120 h exposure), 3 nM; in data set [2] (Homo sapiens, BXPC-3) it was roughly 5 nM. In the data set on BxPC3 cells [1] (BxPC3, 96 h), the “maximal efficacy (reduction/inhibition of cell viability, cell killing)” value was greater than 80%. In addition, the “reduction in cell viability at concentrations above 50 nM” value with BxPC3 cells [4] (BxPC3, 120 h, >50 nM) is given as 100%. In addition, the “maximal efficacy, inhibition of cell viability” value in data set [2] (human, 120 h, 100 nM) is given as ~ 85%. Further, the inhibition at 0.1 µM in the data set on MiaPaca-2 (Homo sapiens, MIA PaCa-2, 100 nM, read-out: maximal inhibition at 100 nM) was 90%.
As for “SLP49-2: 25mer CHK1 siRNA with 2 GEMs attached at the 3′ end of the Sense Strand (SEQ ID NO: 19) (sense CCUGUGGAAUAGUACUUACUGCAAUCC; antisense AUUGCAGUAAGUACUAUUCCACAGG; 25mer siRNA, two gemcitabine nucleotides added at sense strand 3' end, further chemistry not given here)”, the “inhibition in cell viability at 0.1 nM” value with BxPC3 cells [1] is recorded as 31%. In data set [2], the “efficacy (inhibition of cell viability / cell killing) at 30 nM” value is listed as ~ 100%. Further, the “maximal inhibition at 10 nM” value in the data set on MiaPaca-2 (10 nM) is given as ~ 100%.
Turning to “SLP49-3: Unlabeled 25mer blunt ended siRNA against RAD17, sense CCAACAAUUAUGAUGAAAUUUCUUA (SEQ ID NO: 23) (antisense UAAGAAAUUUCAUCAUAAUUGUUGG; further chemistry not given here)”, the “maximal efficacy (reduction/inhibition of cell viability, cell killing)” value was 60% in the data set on BxPC3 cells [1] (BxPC3, 96 h) and ~ 60% with BxPC3 cells [1] (BxPC3, 96 h, listed as RAD17 siRNA). In addition, the half-inhibitory concentration (IC50) is roughly 5 nM in the data set with BxPC3 cells [1] (BxPC3, 96 h) and roughly 4 nM in data set [2]. Moreover, in data set [2], the “maximal efficacy, inhibition of cell viability” value was determined as 60%. Further, the results for the “maximal inhibition of cell viability” value in the data set on MiaPaca-2 (listed as RAD17 siRNA) and in the data set on MiaPaca-2 (listed as unmodified 25mer siRNA targeting RAD17) were ~ 30% and ~ 25%, respectively.
As for “SLP49-6: CHK1 siRNA, SS shortened by first 2 bases, containing 2 Gems (SEQ ID NO: 21) (sense UGUGGAAUAGUACUUACUGCAAUCC; antisense AUUGCAGUAAGUACUAUUCCACAGG; sense strand contains two gemcitabines, positions not given here, further chemistry not given here)”, in data set [2], the “efficacy (inhibition of cell viability / cell killing) at 30 nM” value is 83-97% and the IC50 was roughly 3 nM.
For the compound “CHK_4: siRNA designed against CHK1, sense strand CCTGTGGAATAGTACTTACTGCAAT (SEQ ID NO: 9); same sequence as SLP49-1 (antisense strand not cited, further chemistry not given here)”, the “potency on BxPC3 cell viability” value in the data set with BxPC3 cells [5] is “most potent effect; also recorded: greater potency than CHK-AZ”; with BxPC3 cells [5] (listed as #4) it was “#4 sequence CCTGTGGAATAGTACTTACTGCAAT (SEQ ID NO: 9) seemed to be the best”. Moreover, the “% viable BxPC3 cells at 72 h” value in the data set with BxPC3 cells [5] (100% = non-silencing control siRNA) is 24%. The “effect on CFPAC cell viability” value in the data set with CFPAC cells was “very pronounced effect on cell viability”. Further, the “silencing of CHK1 gene” value in the data set with CHK1 is “better silencing than the Azorsa sequence”.
